pIC50, pKd: −log10 of the molar value.
Assays:
[1] = system: IL-17 production by CD4 T cells; assay: Human Th17 Assay; type: cell-based; details: human CD4+ T cells under Th17 differentiation, 3 days, IL-17 in supernatant
Excerpt: The human Th17 assay tests the effect of RORγt modulatory compounds on IL-17 production by CD4 T cells under conditions which favor Th17 differentiation.
Total CD4^+ T cells were isolated from the peripheral blood mononuclear cells (PBMC) of healthy donors using a CD4^+ T cell isolation kit II, following the manufacturer's instructions (Miltenyi Biotec). Cells were resuspended in a medium of RPMI-1640 supplemented with 10% fetal bovine serum, penicillin, streptomycin, glutamate, and β-mercaptoethanol and were added to 96-well plates at 1.5×10^5 per 100 μL per well. 50 μL of compound at titrated concentrations in DMSO were added into each well at final DMSO concentration at 0.2%. Cells were incubated for 1 hour, then 50 μL of Th17 cell differentiation medium was added to each well. […] Supernatants were collected and the accumulated IL-17 in culture was measured by using MULTI-SPOT® Cytokine Plate following manufacture's instruction (Meso Scale Discovery). The plate was read using Sector Imager 6000, and IL-17 concentration was extrapolated from the standard curve. The IC50s were determined by GraphPad.

[2] = biological target: T1, human RORγt LBD (Homo sapiens, UniProt P51449); assay: RORγt (LBD) Reporter Assay (GAL4 luciferase, HEK293T); type: cell-based; details: HEK293T cells; for pIC50: 24 hours with compound
T1 construct: expressed in transfected cells; host or cells: HEK293T
T1 sequence (P51449 258-518): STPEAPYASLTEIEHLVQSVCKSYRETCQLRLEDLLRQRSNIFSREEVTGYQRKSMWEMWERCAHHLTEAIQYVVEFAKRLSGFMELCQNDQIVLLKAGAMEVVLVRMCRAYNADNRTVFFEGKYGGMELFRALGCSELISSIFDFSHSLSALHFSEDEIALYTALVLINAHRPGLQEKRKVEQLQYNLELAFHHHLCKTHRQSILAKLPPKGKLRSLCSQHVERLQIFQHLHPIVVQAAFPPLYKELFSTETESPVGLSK
Protocol: Compounds were assessed for RORgt functional modulation using either the RORgt ligand binding domain (LBD) reporter assay, or the RORgt full-length (FL) reporter assay.
A reporter assay was used to test functional activity of RORγt modulatory compounds on transcriptional activation driven by the RORγt LBD. Cells used in the assay were co-transfected with two constructs. The first construct, pBIND-RORγt LBD, contained the wild type human RORγt LBD fused to the DNA binding domain of the GAL4 protein. The second construct, pGL4.31 (Promega Cat no. C935A), contained multiple GAL4 responsive DNA elements upstream of firefly luciferase. […] The mutant construct was called pBIND-RORγt-AF2.
The pBIND vector contains the GAL4 DNA Binding Domain (GAL4 DBD) and the renilla luciferase gene under control of the SV40 promoter. Renilla luciferase expression serves as a control for transfection efficiency and cell viability.
The reporter assay was performed by transiently transfecting HEK293T cells with 5 μg of pBIND-RORγt LBD or pBIND-RORγt LBD-AF2 and 5 μg pGL4.31 (Promega Cat no. C935A) using Fugene 6 (Invitrogen Cat no. E2691) at a 1:6 ratio of DNA: Fugene 6 in a T-75 flask in which cells were at least 80% confluent. Twenty four hours after bulk transfection, cells were plated into 96-well plates at 50,000 cells/well in phenol-red free DMEM containing 5% Lipid Reduced FCS and Pen/Strep. Six hours after plating, cells were treated with compounds for 24 hours. Media was removed and cells were lysed with 50 μL 1× Glo Lysis Buffer (Promega). Dual Glo Luciferase Reagent (50 μL/well) was then added and firefly luciferase luminescence was read on an Envision after a ten minute incubation. Finally, Stop and Glo reagent (50 μL/well) was added and renilla luciferase luminescence was read on an Envision after a ten minute incubation. To calculate the effect of compounds on RORγt activity, the ratio of firefly to renilla luciferase was determined and plotted against compound concentration. Agonist compounds increase RORγt-driven luciferase expression, and antagonist or inverse agonist compounds decrease luciferase expression.

[3] = biological target: T2, human RORγt ligand binding domain (RORγt LBD) (Homo sapiens, UniProt P51449); assay: RORγt ThermoFluor assay (thermal shift binding affinity); details: 0.065 mg/mL RORγt, pH 7.0; estimated from concentration response curves
T2 construct: His-tag (N); TurboTEV protease cleavage site (ENLYFQG) (N); made in house; host or cells: E. coli (pHIS1, modified pET vector)
T2 sequence (P51449 with tags, fused parts or gaps): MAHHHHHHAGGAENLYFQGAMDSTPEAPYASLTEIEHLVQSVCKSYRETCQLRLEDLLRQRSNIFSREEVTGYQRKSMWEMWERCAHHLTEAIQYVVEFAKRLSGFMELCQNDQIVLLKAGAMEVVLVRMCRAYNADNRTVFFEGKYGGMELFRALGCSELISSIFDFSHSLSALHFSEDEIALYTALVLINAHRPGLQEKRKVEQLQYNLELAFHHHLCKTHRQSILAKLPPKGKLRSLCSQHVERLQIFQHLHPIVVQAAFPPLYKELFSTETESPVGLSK
Protocol: This approach is applicable to a wide variety of systems, and rigorous in theoretical interpretation through quantitation of equilibrium binding constants (KD).
The shift in the melting point described as a ΔTm is proportional to the concentration and affinity of the ligand. The compound potency may be compared as a rank order of either ΔTm values at a single compound concentration or in terms of KD values, estimated from concentration response curves.
ThermoFluor® experiments were carried out using instruments owned by Janssen Research and Discovery, L.L.C. through its acquisition of 3-Dimensional Pharmaceuticals, Inc. 1,8-ANS (Invitrogen) was used as a fluorescent dye. […]
Fluorescence was measured by continuous illumination with UV light (Hamamatsu LC6) supplied via fiber optic and filtered through a band-pass filter (380-400 nm; >6 OD cutoff). Fluorescence emission of the entire 384-well plate was detected by measuring light intensity using a CCD camera (Sensys, Roper Scientific) filtered to detect 500±25 nm, resulting in simultaneous and independent readings of all 384 wells. Images were collected at each temperature, and the sum of the pixel intensity in a given area of the assay plate was recorded versus temperature. […]

| pIC50 [2] | inhibition at 6 µM ([2]; HEK-293T, 6 μM compound) [%] | pKd [3] | Structure (SMILES) | pIC50 [1] |
| --- | --- | --- | --- | --- |
| – | – | – | COc1nc2ccc(C(O)c3cnnn3C)cc2c(Cl)c1Cc1ccc(-n2cccn2)cc1 (single isomer, unassigned) [Example 5b, (3-(4-(1H-Pyrazol-1-yl)benzyl)-4-chloro-2-methoxyquinolin-6-yl)(1-methyl-1H-1,2,3-triazol-5-yl)methanol] | 5.82 |
| – | – | – | COc1nc2ccc(C(O)c3cnnn3C)cc2c(Cl)c1Cc1ccc(-n2cccn2)cc1 (single isomer, unassigned) [Example 5c, (3-(4-(1H-Pyrazol-1-yl)benzyl)-4-chloro-2-methoxyquinolin-6-yl)(1-methyl-1H-1,2,3-triazol-5-yl)methanol] | 6.21 |
| < 5.22 | 31 | 6.74 | COc1nc2ccc(C(O)c3cnc(C)n3C)cc2c(Cl)c1Cc1ccc(F)cc1 (single isomer, unassigned) [Example 8b] | – |
| < 5.22 | – | 7.02 | COc1nc2ccc(C(O)c3cnc(C)n3C)cc2c(Cl)c1Cc1ccc(F)cc1 (single isomer, unassigned) [Example 8c] | – |
| < 5.22 | – | – | COc1nc2ccc(C(O)c3cnc(C)n3C)cc2c(Cl)c1Cc1ccc(F)cc1 (centres unmarked) [Example 8a] | – |
